Laboratory results published in patent US11292796B2 (SIGNAL PHARMACEUTICALS, LLC, priority 2008, dated 2022).

Molecular target: T1, mTOR (Homo sapiens, UniProt P42345)
T1 construct: purchased Invitrogen PR8683A
Experiment: mTOR HTR-FRET assay
Format: biochemical
Conditions: read-out: Act. Level (IC50 in mTor HTR-FRET assay)
How it was run: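 Test compounds, taken from 10 mM DMSO stocks and diluted, were mixed with mTOR enzyme (0.200 μg/mL) in Tris buffer pH 7.4 with 100 mM NaCl, 0.1% Tween-20 and 1 mM DTT. ATP/substrate addition initiated the reaction, alongside compound-free controls.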

T1 sequence (P42345 1360-2549 limits assumed): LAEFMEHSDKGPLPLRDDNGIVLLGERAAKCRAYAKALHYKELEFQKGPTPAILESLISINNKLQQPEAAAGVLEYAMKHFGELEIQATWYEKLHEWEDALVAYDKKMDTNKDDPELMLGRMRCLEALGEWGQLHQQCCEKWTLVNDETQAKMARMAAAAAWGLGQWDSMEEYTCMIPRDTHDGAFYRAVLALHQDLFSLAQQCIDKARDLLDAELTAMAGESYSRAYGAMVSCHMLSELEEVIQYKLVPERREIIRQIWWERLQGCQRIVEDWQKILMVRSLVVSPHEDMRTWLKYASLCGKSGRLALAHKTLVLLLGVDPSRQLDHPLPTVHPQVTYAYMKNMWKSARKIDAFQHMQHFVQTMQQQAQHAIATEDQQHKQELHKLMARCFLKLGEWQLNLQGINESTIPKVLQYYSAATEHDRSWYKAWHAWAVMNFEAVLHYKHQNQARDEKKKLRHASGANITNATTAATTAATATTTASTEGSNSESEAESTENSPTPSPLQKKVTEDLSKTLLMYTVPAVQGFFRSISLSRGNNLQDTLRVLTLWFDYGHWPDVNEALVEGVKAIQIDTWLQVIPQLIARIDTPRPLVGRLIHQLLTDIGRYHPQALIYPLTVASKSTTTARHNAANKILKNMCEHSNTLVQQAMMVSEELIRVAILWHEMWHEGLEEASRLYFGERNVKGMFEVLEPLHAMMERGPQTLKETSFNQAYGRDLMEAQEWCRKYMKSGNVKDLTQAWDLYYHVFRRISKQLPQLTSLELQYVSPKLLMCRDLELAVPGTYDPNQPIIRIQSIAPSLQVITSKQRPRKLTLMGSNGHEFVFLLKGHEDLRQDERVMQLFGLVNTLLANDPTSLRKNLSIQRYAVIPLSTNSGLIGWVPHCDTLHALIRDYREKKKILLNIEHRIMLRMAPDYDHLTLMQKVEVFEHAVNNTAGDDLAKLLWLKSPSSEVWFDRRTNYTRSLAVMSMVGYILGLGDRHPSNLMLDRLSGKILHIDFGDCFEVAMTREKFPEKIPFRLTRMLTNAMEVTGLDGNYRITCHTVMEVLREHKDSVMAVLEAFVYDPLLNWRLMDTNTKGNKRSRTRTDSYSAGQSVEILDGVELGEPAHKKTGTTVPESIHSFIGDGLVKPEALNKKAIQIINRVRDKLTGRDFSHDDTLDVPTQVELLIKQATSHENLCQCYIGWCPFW

Row | SMILES | IC50
1 | CO[C@H]1CC[C@H](N2CC(=O)Nc3ncc(-c4ccc(C(C)(C)O)nc4)nc32)C1 [Example 55, 6-(6-(2-hydroxypropan-2-yl)pyridin-3-yl)-4-((1S,3S)-3-methoxycyclopentyl)-3,4-dihydropyrazino[2,3-b]pyrazin-2(1H)-one] | 1000 to 10000 nM
2 | CO[C@H]1CC[C@@H](N2CC(=O)Nc3ncc(-c4ccc(-c5nc[nH]n5)c(F)c4C)nc32)CC1 [Example 28, 6-(3-fluoro-2-methyl-4-(1H-1,2,4-triazol-3-yl)phenyl)-4-(cis-4-methoxycyclohexyl)-3,4-dihydropyrazino[2,3-b]pyrazin-2(1H)-one] | 0.005 to 250 nM
3 | Cc1cc(-c2nnc[nH]2)ccc1-c1cnc2c(n1)NC1(CCCC1)C(=O)N2 [Example 64, 7′-(2-methyl-4-(4H-1,2,4-triazol-3-yl)phenyl)-1′H-spiro[cyclopentane-1,2′-pyrazino[2,3-b]pyrazin]-3′(4′H)-one] | 250 to 500 nM
4 | Cc1cc(C(N)=O)ncc1-c1cnc2c(n1)N(C(C)C)C(=O)CN2 [Example 180, 5-(8-isopropyl-7-oxo-5,6,7,8-tetrahydropyrazino[2,3-b]pyrazin-2-yl)-4-methylpicolinamide] | 0.005 to 250 nM
5 | O=C1CNc2ncc(-c3cccc4[nH]cnc34)nc2N1CCC1CCOCC1 [Example 156, 7-(1H-benzo[d]imidazol-4-yl)-1-(2-(tetrahydro-2H-pyran-4-yl)ethyl)-3,4-dihydropyrazino[2,3-b]pyrazin-2(1H)-one] | 500 to 1000 nM
6 | Cc1cc(-c2nc[nH]n2)c(F)cc1-c1cnc2c(n1)N([C@H]1CC[C@H](O)CC1)CC(=O)N2 [Example 23, 6-(5-fluoro-2-methyl-4-(1H-1,2,4-triazol-3-yl)phenyl)-4-(trans-4-hydroxycyclohexyl)-3,4-dihydropyrazino[2,3-b]pyrazin-2(1H)-one] | 0.005 to 250 nM
7 | NC(=O)c1ccc(-c2cnc3c(n2)N(CCC2CCOCC2)C(=O)CN3)cc1 [Example 222, 4-(7-oxo-8-(2-(tetrahydro-2H-pyran-4-yl)ethyl)-5,6,7,8-tetrahydropyrazino[2,3-b]pyrazin-2-yl)benzamide] | 0.005 to 250 nM
8 | CO[C@H]1CC[C@H](CN2C(=O)CNc3ncc(-c4cnc(C(N)=O)cc4C)nc32)CC1 [Example 206, 5-(8-((trans-4-methoxycyclohexyl)methyl)-7-oxo-5,6,7,8-tetrahydropyrazino[2,3-b]pyrazin-2-yl)-4-methylpicolinamide] | 1000 to 10000 nM
9 | CC(C)(O)c1ccc(-c2cnc3c(n2)N([C@H]2CC[C@H](O)CC2)CC(=O)N3)cn1 [Example 101, 4-(trans-4-hydroxycyclohexyl)-6-(6-(2-hydroxypropan-2-yl)pyridin-3-yl)-3,4-dihydropyrazino[2,3-b]pyrazin-2(1H)-one] | 0.005 to 250 nM
10 | Cc1cc(-c2nnc[nH]2)ccc1-c1cnc2c(n1)N1CCN(C)CC1C(=O)N2 (stereo not shown) [Example 118, 9-(4-(4H-1,2,4-triazol-3-yl)-2-methylphenyl)-3-methyl-6,11,4a-trihydropiperazino[1,2-e]pyrazino[2,3-b]pyrazin-5-one] | 500 to 1000 nM
11 | O=C1CNc2ncc(-c3ccc4cn[nH]c4c3)nc2N1CCC1CCOCC1 [Example 212, 7-(1H-indazol-6-yl)-1-(2-(tetrahydro-2H-pyran-4-yl)ethyl)-3,4-dihydropyrazino[2,3-b]pyrazin-2(1H)-one] | 0.005 to 250 nM
12 | CC(C)(O)c1ccc(-c2cnc3c(n2)N(CC2CCCC2)C(=O)CN3)cn1 [Example 251, 1-(cyclopentylmethyl)-7-(6-(2-hydroxypropan-2-yl)pyridin-3-yl)-3,4-dihydropyrazino[2,3-b]pyrazin-2(1H)-one] | 500 to 1000 nM
13 | CC(C)(O)c1ccc(-c2cnc3c(n2)N(CCC2CCOCC2)C(C)(C)C(=O)N3)cn1 [Example 85, 6-(6-(2-hydroxypropan-2-yl)pyridin-3-yl)-3,3-dimethyl-4-(2-(tetrahydro-2H-pyran-4-yl)ethyl)-3,4-dihydropyrazino[2,3-b]pyrazin-2(1H)-one] | 500 to 1000 nM
